Data set [1] deals with rat. Conditions: Prenatal developmental toxicity study, sprague dawley, Oral, Gavage/Intubation, dose end: 15 GD, group: maternal.
For data set [2], the system named is rat. Conditions: Subchronic oral toxicity in rodents, sprague dawley, Gavage/Intubation, dose end: 30 day, group: systemic, systemic / in life observation / clinical signs / soft stools + systemic / in life observation / clinical signs / urine, discoloration.
The test system of data set [3] is rat. Conditions: Subchronic oral toxicity in rodents, Feed, dose end: 13 week, group: systemic, systemic / clinical chemistry / aspartate aminotransferase (ast/sgot) / aspartate aminotransferase (ast/sgot) + systemic / clinical ….
Data set [4] has as its system dog. Particulars: Chronic toxicity; beagle; Oral; Feed; dose end: 52 week; group: systemic; systemic / in life observation / body weight / body weight + systemic / in life observation / food consumption / food consumption + systemic….
Data set [5] concerns rat. Particulars: Chronic toxicity, fischer, Oral, [Not Specified], dose end: 24 month, group: systemic.
Data set [6] has as its system dog. Particulars: Subchronic oral toxicity in nonrodent, beagle, Feed, dose end: 13 week, group: systemic, systemic / pathology microscopic / liver / infiltration cellular + systemic / pathology microscopic / liver / necrosis + systemic / ….
Data set [7] deals with rat. Particulars: Subchronic oral toxicity in rodents, other, Feed, dose end: 3 month, group: systemic.
In data set [8] the test system is rat. Conditions: Prenatal developmental toxicity study, other, Oral, Gavage/Intubation, dose end: 15 GD.
Data set [9] concerns mouse. Conditions: Carcinogenicity; other; Oral; Feed; dose end: 18 month; group: systemic; systemic / in life observation / body weight / body weight + systemic / in life observation / body weight / body weight gain + systemic / in….
The test system of data set [10] is rabbit. Conditions: Prenatal developmental toxicity study, chinchilla, Oral, Gavage/Intubation, dose end: 19 GD.
For data set [11], the system named is dog. Conditions: Chronic toxicity; beagle; Oral; Feed; dose end: 12 month; group: systemic; systemic / in life observation / body weight / body weight gain + systemic / in life observation / food consumption / food consumption + ….
Data set [12] has as its system mouse. Particulars: Subchronic oral toxicity in rodents, b6c3f1, Gavage/Intubation, dose end: 14 week, group: systemic.
For data set [13], the system named is mouse. Conditions: Carcinogenicity; b6c3f1; Oral; Gavage/Intubation; dose end: 2 year; group: systemic; systemic / pathology microscopic / bone marrow / hyperplasia + systemic / pathology microscopic / liver / hypertrophy + systemic / pathology….
Data set [14] deals with rat. Conditions: Subchronic oral toxicity in rodents, fischer, Gavage/Intubation, dose end: 14 week.
Data set [15] concerns rat. Conditions: Carcinogenicity; fischer; Oral; Gavage/Intubation; dose end: 2 year; group: systemic; systemic / pathology microscopic / kidney / nephropathy + systemic / pathology microscopic / liver / clear cell focus + systemic / pathology….
The test system of data set [16] is mouse. Conditions: Prenatal developmental toxicity study, cd1, Oral, Gavage/Intubation, dose end: 15 GD.
The subject of data set [17] is rat. Particulars: Prenatal developmental toxicity study, sprague dawley, Oral, Gavage/Intubation, dose end: 15 GD.
For data set [18], the system named is rat. Particulars: Multigenerational reproductive toxicity study, sprague dawley, Oral, Gavage/Intubation, dose end: 1 generation, group: parental.
Data set [19] concerns rat. Particulars: Subchronic oral toxicity in rodents, fischer, Feed, dose end: 13 week, group: systemic, systemic / clinical chemistry / alanine aminotransferase (alt/sgpt) / alanine aminotransferase (alt/sgpt) + systemic / clinical chemistry / ….
[20] abbreviates: systemic / in life observation / clinical signs / salivation + systemic / in life observation / clinical signs / soft stools + systemic / in….
Setting [21] is: systemic / pathology microscopic / testes / atrophy.
Where [22] appears, read: systemic / pathology microscopic / urinary bladder / hyperplasia + systemic / clinical chemistry / bilirubin / total bilirubin.
Setting [23] is: systemic / pathology microscopic / urinary bladder / hyperplasia + systemic / pathology microscopic / kidney / atrophy + systemic / ….
The mark [24] stands for this setting: group: developmental, developmental / developmental malformation / bone / bipartite ossification + developmental / developmental malformation / bone / dumbbell ….
Where [25] appears, read: group: maternal, systemic / in life observation / body weight / body weight gain + systemic / in life observation / clinical signs / odorous urine + systemic….
Where [26] appears, read: group: developmental, developmental / developmental malformation / bone / unossified.
The mark [27] stands for this setting: group: maternal, systemic / in life observation / mortality / mortality.
The mark [28] stands for this setting: group: maternal, systemic / in life observation / mortality / mortality + systemic / in life observation / clinical signs / reduced motor activity + systemic….
Where [29] appears, read: systemic / hematology / heinz body / heinz body + systemic / hematology / methemoglobin / methemoglobin + systemic / in life observation / ….
Where [30] appears, read: systemic / organ weight / liver / absolute + systemic / organ weight / liver / relative to body weight + systemic / pathology microscopic / ….
The mark [31] stands for this setting: group: maternal, reproductive / reproductive performance / estrous cycle / abnormal.
[32] abbreviates: group: systemic, systemic / clinical chemistry / alanine aminotransferase (alt/sgpt) / alanine aminotransferase (alt/sgpt) + systemic / clinical chemistry / ….
The mark [33] stands for this setting: group: developmental, systemic / in life observation / body weight / fetal weight.
Setting [34] is: group: maternal, systemic / in life observation / mortality / mortality + systemic / organ weight / liver / absolute + systemic / organ weight / uterus / nos.
Where [35] appears, read: group: maternal, systemic / in life observation / body weight / body weight gain + systemic / in life observation / clinical signs / fur (altered appearance….
[36] abbreviates: systemic / clinical chemistry / albumin / albumin + systemic / clinical chemistry / albumin-globulin ratio / albumin-globulin ratio + ….
Setting [37] is: systemic / clinical chemistry / cholesterol / cholesterol.

A value given as a limit tells only on which side of the number the result lay.

As to `O=C(O)c1c(Cl)c(Cl)c(C(=O)O)c(Cl)c1Cl` [Chlorthal], the LOAEL in [1] (systemic / in life observation / clinical signs / salivation + systemic / in life observation / clinical signs / soft stools) is 2500 mg/kg/day. In data set [1] (setting [20]), the LEL came to 2500 mg/kg/day, the NEL turned out to be 1250 mg/kg/day and the no observed adverse effect level (NOAEL) came to 1250 mg/kg/day. Besides, in data set [2], the LEL was 2000 mg/kg/day, the lowest-observed-adverse-effect level (LOAEL) was 2000 mg/kg/day, the NEL worked out at 500 mg/kg/day and the NOAEL came to 500 mg/kg/day.
For the molecule `Cc1ccccc1CO[C@@H]1C[C@@]2(C(C)C)CC[C@]1(C)O2` [Cinmethylin], the LEL was 1.5 mg/kg/day in [3], 75 mg/kg/day in data set [4] and 1.5 mg/kg/day in data set [5] (setting [21]). In addition, the LOAEL in data set [3] was above 50 mg/kg/day; in data set [4], 75 mg/kg/day; in [5] (systemic / pathology microscopic / kidney / nephropathy), 150 mg/kg/day. Moreover, the NEL in data set [3] is below 1.5 mg/kg/day; in [4], 7.5 mg/kg/day; in [5] (setting [21]), below 1.5 mg/kg/day. The results for the no observed adverse effect level (NOAEL) in data set [3], in data set [4] and in data set [5] (systemic / pathology microscopic / kidney / nephropathy + systemic / organ weight / liver / relative to body weight + systemic / organ …) were at least 50 mg/kg/day, 7.5 mg/kg/day and 5 mg/kg/day, respectively.
For the molecule `CCCCCC(C)OC(=O)COc1ccc(Cl)c2cccnc12` (stereo unspecified) [Cloquintocet-mexyl], the LEL came out at 30.2 mg/kg/day in [6]; 63.9 mg/kg/day in data set [7] (setting [22]); 400 mg/kg/day in [8] (setting [24]); 400 mg/kg/day in data set [8] (setting [25]); 520 mg/kg/day in [9]; 60 mg/kg/day in data set [10] (setting [26]). Besides, the LEL worked out at 300 mg/kg/day in [10] (setting [28]) and 196 mg/kg/day in data set [11]. For the same molecule, the LOAEL was 30.2 mg/kg/day in data set [6]; 63.9 mg/kg/day in data set [7] (setting [22]); 400 mg/kg/day in data set [8] (setting [24]); 400 mg/kg/day in data set [8] (setting [25]); 520 mg/kg/day in [9]; above 300 mg/kg/day in [10] (setting [26]). The LOAEL in [10] (setting [27]) worked out at 300 mg/kg/day; in data set [11] it was 196 mg/kg/day. Further, the NEL is 3.3 mg/kg/day in data set [6]; 9.66 mg/kg/day in [7] (setting [23]); 100 mg/kg/day in [8] (setting [24]); 100 mg/kg/day in data set [8] (setting [25]); 102 mg/kg/day in data set [9]; 10 mg/kg/day in data set [10] (setting [26]). Further, the NEL was determined as 60 mg/kg/day in data set [10] (setting [28]) and 43 mg/kg/day in data set [11]. The no observed adverse effect level (NOAEL) in data set [6] was 3.3 mg/kg/day; in data set [7] (setting [23]) it was 9.66 mg/kg/day; in data set [8] (setting [24]) it was 100 mg/kg/day; in [8] (setting [25]), 100 mg/kg/day; in data set [9], 102 mg/kg/day; in [10] (setting [26]) it was at least 300 mg/kg/day. The NOAEL in data set [10] (setting [28]) stood at 60 mg/kg/day; in [11], 43 mg/kg/day.
In the case of `Cc1ccc(N(C)C)cc1` [N,N,4-Trimethylaniline], the lowest-observed-adverse-effect level (LOAEL) in data set [12] (setting [29]) was above 250 mg/kg/day; in data set [13] it was 6 mg/kg/day; in data set [14] (setting [31]), above 1000 mg/kg/day; in data set [14] (setting [32]) it was above 1000 mg/kg/day; in [15], above 60 mg/kg/day. The NOAEL in [12] (setting [29]) is at least 250 mg/kg/day; in data set [13] it was below 6 mg/kg/day; in data set [14] (setting [31]) it was at least 1000 mg/kg/day; in data set [14] (setting [32]), at least 1000 mg/kg/day; in data set [15], at least 60 mg/kg/day. Besides, the LEL in [12] (setting [30]) worked out at 15 mg/kg/day; in [13], 6 mg/kg/day; in data set [14] (setting [31]) it was 125 mg/kg/day; in data set [14] (setting [32]), 62.5 mg/kg/day; in data set [15], 6 mg/kg/day. In addition, the NEL in data set [12] (setting [30]) is below 15 mg/kg/day; in data set [13], below 6 mg/kg/day; in data set [14] (setting [31]) it was 62.5 mg/kg/day; in data set [14] (setting [32]), below 62.5 mg/kg/day; in [15] it was below 6 mg/kg/day.
Turning to `CN(C)[C@@H]1C(=O)C(C(N)=O)=C(O)[C@@]2(O)C(=O)C3=C(O)c4c(O)cccc4[C@@](C)(O)[C@H]3[C@H](O)[C@@H]12` [Oxytetracycline], the LEL in data set [16] (setting [33]) turned out to be 2100 mg/kg/day; in data set [16] (setting [27]), 1320 mg/kg/day; in [17] (setting [33]) it was 1200 mg/kg/day; in data set [17] (setting [35]), 1200 mg/kg/day. Also, the LOAEL in data set [16] (setting [33]) is above 2100 mg/kg/day; in [16] (setting [34]) it was above 2100 mg/kg/day; in data set [17] (setting [33]) it was above 1500 mg/kg/day; in data set [17] (setting [35]), above 1500 mg/kg/day. The NEL in data set [16] (setting [33]) is 1670 mg/kg/day; in data set [16] (setting [27]), below 1320 mg/kg/day; in data set [17] (setting [33]), below 1200 mg/kg/day; in data set [17] (setting [35]) it was below 1200 mg/kg/day. Further, the no-observed-adverse-effect level (NOAEL) in [16] (setting [33]) was at least 2100 mg/kg/day; in data set [16] (setting [34]), at least 2100 mg/kg/day; in [17] (setting [33]), at least 1500 mg/kg/day; in data set [17] (setting [35]), at least 1500 mg/kg/day.
Consider `O=S(=O)([O-])C(F)(F)C(F)(F)C(F)(F)C(F)(F)C(F)(F)C(F)(F)F.[K+]` [PFHS-K], for which, in [18] (setting [36]), the lowest observed adverse effect level (LOAEL) was above 10 mg/kg/day and the NOAEL was at least 10 mg/kg/day. In data set [18] (setting [37]), the LEL was 0.3 mg/kg/day and the NEL was below 0.3 mg/kg/day.
For the molecule `CC(C)CCCCCOC(=O)c1nc(Cl)c(Cl)c(N)c1Cl` [Picloram-isoctyl], in [19], the LEL turned out to be 220 mg/kg/day, the lowest observed adverse effect level (LOAEL) stood at 220 mg/kg/day, the NEL turned out to be 73 mg/kg/day and the no-observed-adverse-effect level (NOAEL) was found to be 73 mg/kg/day.

For orientation: LOAEL means the lowest tested level that showed an adverse finding. Usually NOAEL stands for the highest tested level that showed no adverse finding.

The values above are taken from EPA's ToxRefDB 2.
